Where two headings read alike, the source gives them in different places.
How the values were obtained:
[1] = Fluorescence excitation/absorption and emission maxima; format: physicochemical; settings: PBS pH 7.4
Text: Figure S8. Fluorescence excitation and emission spectra of the utilized fluorescent reporters in PBS pH 7.4. Spectra l differences between probes carrying the same fluorophore were […]
Table S6. Fluorescence excitation, emission maxima, and Stokes-shift in PBS pH 7.4 for the used fluorophores, respectively. difference s between probes with the same fluorophore were […]
λmax Excitation [nm] λmax Emission [nm] Stokes-shift [nm]
(1 picture or pasted object on this page, not shown here)

[2] = target: T1, NanoLuc luciferase MAGL fusion protein in HEK293A cells (Homo sapiens, UniProt Q99685); experiment: Cellular MAGL NanoBRET target engagement assay; format: cell-based; settings: Table 2; mean of three independent measurements ± SD; read-out: HEK 293 nanoBRET IC50±SD
T1 construct: expressed in transfected cells
T1 sequence (Q99685 1-303): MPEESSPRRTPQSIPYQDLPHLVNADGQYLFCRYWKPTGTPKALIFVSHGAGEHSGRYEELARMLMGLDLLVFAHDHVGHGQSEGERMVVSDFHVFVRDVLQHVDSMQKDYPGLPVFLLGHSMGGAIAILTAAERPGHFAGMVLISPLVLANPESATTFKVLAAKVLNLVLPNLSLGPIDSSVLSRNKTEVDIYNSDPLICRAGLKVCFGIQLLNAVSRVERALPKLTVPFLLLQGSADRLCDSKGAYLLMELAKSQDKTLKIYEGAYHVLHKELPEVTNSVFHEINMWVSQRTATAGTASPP
Experimental: We, therefore, confirmed cellular MAGL target engagement in a nanoBRET assay using live HEK293 cells.[39] […] To overcome the low cellular potency of 4, we exploited the modular construction principle to modulate unfavorable physicochemical properties and investigated less polar, privileged head groups[23, 33, 40] (Supporting Information Table S4). […]
This assay was performed as first described before.[39]
Compounds were profiled by a novel cellular MAGL NanoBRET™ Target Engagement assay, which measures the apparent affinity of test compounds by competitive displacement of a Roche-developed Tracer (WO2021058443, Example 21)[21], reversibly bound to a NanoLuc® luciferase MAGL fusion protein in cells.
A HEK293A stable cell line expressing NanoLuc_MAGL was established at Roche and assigned as HEK293A_NanoLuc_MAGL clone #43. A fixed concentration of tracer is added to cells expressing the NanoLuc®_MAGL fusion protein to generate a BRET reporter complex. The introduction of competing compounds results in a dose-dependent decrease in NanoBRET™ energy transfer, which allows quantification of the intracellular affinity of the target protein for the […]
HEK293A_NanoLuc_MAGL clone #43 cells were cultured in DMEM (Gibco 31966) with 10% FBS and 800 ug/ml G418. The NanoBRET assay was performed by seeding 5000 cells/well in Costar low-volume white 384-well plate in assay buffer (1% FBS in HBSS), followed by adding 50 nM final concentration of tracer and serial dilutions of test compounds. After 2 hours of incubation, Nanoluciferase substrates and extracellular inhibitors were added following the manufacturer's protocol (Promega, #N2520), and the NanoBRET signaling were quantified with the Paradigm

mouse MAGL = target: T2, mouse MAGL (Mus musculus, UniProt O35678); experiment: In vitro MAGL inhibition assay (2-AG hydrolysis followed by mass spectrometry); format: biochemical
T2 sequence (O35678 1-303): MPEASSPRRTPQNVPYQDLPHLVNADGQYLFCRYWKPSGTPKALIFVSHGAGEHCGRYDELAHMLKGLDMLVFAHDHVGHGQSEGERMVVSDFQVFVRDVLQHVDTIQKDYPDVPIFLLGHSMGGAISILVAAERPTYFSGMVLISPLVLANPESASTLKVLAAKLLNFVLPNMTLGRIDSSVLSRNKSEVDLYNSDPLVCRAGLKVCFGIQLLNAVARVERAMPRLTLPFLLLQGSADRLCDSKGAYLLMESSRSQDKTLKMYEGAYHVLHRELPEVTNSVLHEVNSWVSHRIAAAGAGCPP
Experimental: (§1) 4. Experimental Details of Biochemical Assays and Crystal Structure
(§2) In Vitro MAGL Inhibition Assay
(§3) Compounds were profiled for MAGL inhibitory activity by determining the enzymatic activity by following the hydrolysis of the natural substrate 2-arachidonoylglycerol (2-AG), resulting in arachidonic acid, which can be followed by mass spectrometry. The 2-AG assay was carried out in 384 well assay plates (PP, Greiner Cat# 784201) in a total volume of 20 µL. Compound dilutions were made in 100% DMSO (VWR Chemicals 23500.297) in a polypropylene plate in 3-fold dilution steps to give a final concentration range in the assay from 12.5 µM to 0.8 pM. 0.25µL compound dilutions (100% DMSO) were added to 9 µL MAGL in assay buffer (50 mM TRIS (GIBCO, 15567-027), 1 mM EDTA (Fluka, 03690-100 mL), 0.01% (v/v) Tween. After shaking, the plate was incubated for 15 min at RT. To start the reaction, 10 µL 2-arachidonoylglycerol in assay buffer was added. The final concentrations in the assay were 50 pM MAGL and 8 µM 2-arachidonoylglyerol. After shaking and 30 min incubation at RT, the reaction was quenched by the addition of 40µL of ACN containing 4 µM of d8-arachidonic acid. The amount of arachidonic acid was traced by an online SPE system (Agilent Rapidfire) coupled to a triple quadrupole mass spectrometer (Agilent 6460). A C18 SPE cartridge (G9205A) was used in an ACN/water liquid setup. The mass spectrometer was operated in negative electrospray mode following the mass transitions 303.1 → 259.1 for arachidonic acid and 311.1 → 267.0 for d8-arachidonic acid. The activity of the compounds was calculated based on the ratio of intensities [arachidonic acid / d8- […]
(§4) This assay was performed as first described before.[39] […]

human MAGL = target: T3, human MAGL (Homo sapiens, UniProt Q99685); experiment: as above; format: biochemical
T3 sequence (Q99685 1-303): T1 sequence (Q99685 1-303)
Experimental: as §1, §2, §3, §4

[3] = Table 2, mean of three independent measurements ± SD, read-out: mMAGL IC50±SD
[4] = Table 2, mean of three independent measurements ± SD, read-out: hMAGL IC50±SD

Row | Compound | λmax Em (fluorescence emission maximum) [1] [nm] | λmax Ex (fluorescence excitation maximum) [1] [nm] | IC50 [2] [nM] | IC50 (mouse MAGL; Supporting Information Tables S1-S5, read-out: IC50 mMAGL) [nM] | IC50 (mouse MAGL; [3]) [nM] | IC50 (human MAGL; Supporting Information Tables S1-S5, read-out: IC50 hMAGL) [nM] | IC50 (human MAGL; [4]) [nM]
1 | CN(C)c1ccc2c(c1)[Si](C)(C)c1cc(N(C)C)ccc1C21OC(=O)c2ccc(C(=O)NCCCCCOc3ccccc3CC3CC4(C3)CN(C(=O)N3CC5(COC(=O)N5)C3)C4)cc21 (stereo not drawn) [Compound 10] | 673 | 654 | 285 ± 240 | 0.155 | 0.16 ± 0.09 | 0.187 | 0.15 ± 0.11
2 | CN(C)c1ccc2c(c1)[Si](C)(C)c1cc(N(C)C)ccc1C21OC(=O)c2ccc(C(=O)NCCCCCOc3ccccc3CC3CC4(C3)CN(C(=O)OC(C(F)(F)F)C(F)(F)F)C4)cc21 (stereo not drawn) [Compound 12] | 673 | 654 | > 1000 |  | 1.35 ± 0.3 |  | 1.15 ± 0.29
